Test system: NPC1^I1061T patient-derived fibroblast cells (GM18453)
Assay: LipidTox Red lipid droplet staining
Format: cell-based, human
Settings: 10 μM, 48 h, vs DMSO

CC(=O)Nc1ccc(C(=O)Nc2ccccc2N)cc1 [CI-994]
Lipid droplet formation (LipidTox Red): increases lipid droplet formation

Source: article PMC8204796 (ACS Pharmacology & Translational Science, 2021)
